Article PMC8205039, “Synthesis and biological evaluation of 4-phenoxy-phenyl isoxazoles as novel acetyl-CoA carboxylase inhibitors” (Journal of Enzyme Inhibition and Medicinal Chemistry, 2021)

How the values were obtained:
hACC1 = target: T1, hACC1 (Homo sapiens, UniProt Q13085); assay: ACC inhibitory assay (ADP-Glo luminescent ADP detection); type: biochemical; details: for hACC1 IRs (%): at 5 μM, HTVS candidates (Table 1); for inhibition at 0.1 µM: hACC1, 0.1 μM, read-out: IRs (%) 0.1 μM; for inhibition at 0.1 µM / inhibition at 5 µM: mean of two independent experiments (Table 2); for inhibition at 5 µM: hACC1, 5 μM, read-out: IRs (%) 5 μM; for IC50: hACC1, mean ± SD
T1 construct: purchased BPS Biosciences 50200
Protocol: The hACC1 inhibitory activity of target compounds was evaluated using the ADP-Glo^TM kinase assay according to our previous report. In brief, 4.5 µL of working solution containing recombinant ACC1 (BPS Biosciences, 50200) and 0.5 µL of diluted compound solution were added to a 384-well Optiplate plate (Perkin Elmer, 6007290, PerkinElmer, Waltham, MA, USA), and incubated at room temperature for 15 min. Then, 5 µL of substrate mixture was added to the 384-well plate to start the reaction. After incubating for 60 min at room temperature, 10 µL of ADP-Glo reagents were added to the 384-well plate, and incubated for another 40 min to deplete the remaining ATP. Finally, 20 µL of kinase detection reagents were added to the plate and incubated for 40 min to convert ADP to ATP. The luminescent signal of ATP was determined using an Envision multifunction reader (Perkin Elmer, 2104–0010, PerkinElmer, Waltham, MA, USA). The IC50 values were calculated using GraphPad Prism 5 software (GraphPad Software, La Jolla, CA, USA).

[1] = Cell viability of non-cancerous HUVEC; type: cell-based, human; details: human, HUVEC cells (non-cancerous)
Protocol: (§1) To investigate the selectivity of the synthesised compounds towards cancer cells, the non-cancerous HUVEC cell line was selected for testing.
(§2) The cytotoxicity of target compounds was assessed by MTT assay. Briefly, cells were seeded in 96-well plates at a density of 2500–3000 per well and incubated for 24 h in a CO2 incubator. Then, the cells were treated with candidate compounds at seven different concentrations for 72 h. At the end of treatment, the MTT reagent (5 mg/mL) was added to determine the cell viability. After 4 h of incubation, the resulting medium was removed, and 100 µL of DMSO was added to dissolve the formed formazan. Finally, the absorbance at 550 nm was measured by a microplate reader (Varioskan LUX, […]), with the IC50 values calculated using GraphPad Prism 5 software (GraphPad Software, La Jolla, CA, USA).

HepG2 cells [2] = assay: MTT assay, HepG2; type: cell-based; details: Homo sapiens, 72 h, mean ± SD (n = 3)
Protocol: as §2

HepG2 cells [3] = assay: MTT assay, HepG2; type: cell-based; details: Homo sapiens, single concentration of 10 µM (Figure S2), read-out: inhibitory rate, HepG2
A549 cells [4] = assay: MTT assay, A549; type: cell-based; details: Homo sapiens, 72 h, mean ± SD (n = 3)
Protocol: as §2

A549 cells [5] = assay: MTT assay, A549; type: cell-based; details: Homo sapiens, single concentration of 10 µM (Figure S2), read-out: inhibitory rate, A549
MDA-MB-231 cells [6] = assay: MTT assay, MDA-MB-231; type: cell-based; details: Homo sapiens, 72 h, mean ± SD (n = 3)
Protocol: as §2

MDA-MB-231 cells [7] = assay: MTT assay, MDA-MB-231; type: cell-based; details: Homo sapiens, single concentration of 10 µM (Figure S2), read-out: inhibitory rate, MDA-MB-231
HUVEC = assay: Cell viability of non-cancerous HUVEC; type: cell-based, human; details: 10 μM
Protocol: as §1, §2

Structure (SMILES) | hACC1 IRs (%) (hACC1) | inhibition at 0.1 µM (hACC1) | inhibition at 5 µM (hACC1) | IC50 (hACC1) | IC50 (HepG2 cells [2]) | IC50 (A549 cells [4]) | IC50 (MDA-MB-231 cells [6]) | melting point | hACC1 IRs (%) (hACC1; listed as D098-1432 (6a)) | ACC inhibitory activity (in words) (hACC1; screening at 5 µM and 0.1 µM) | viability at 72 h, 10 µM [1] | inhibition at 10 µM (HepG2 cells [3]) | inhibition at 10 µM (A549 cells [5]) | inhibition at 10 µM (MDA-MB-231 cells [7]) | IRs towards HUVEC (HUVEC)
O=C(c1c2ccccc2cc2ccccc12)N1CCC(N2CCC[C@@H](C(=O)N3CCOCC3)C2)CC1 [CP-640186, reference compound] | 86.83% | 48.9% | 87.8% | 109 ± 6.2 nM |  |  |  |  |  |  |  |  |  |  | 
CC(=O)NC(C)c1cc(-c2ccc(Oc3ccccc3)cc2)no1 (stereo not drawn) [Compound 6h, N-(1-(3-(4-Phenoxyphenyl)isoxazol-5-yl)ethyl)acetamide] |  | 8.78% | 36.4% |  | > 10 µM | > 10 µM | > 10 µM | 118.5 to 119.5 °C |  |  | 91.5 ± 2.58% |  |  |  | 
CCC(=O)NC(C)c1cc(-c2ccc(Oc3ccccc3)cc2)no1 (stereo not drawn) [Compound 6i, N-(1-(3-(4-Phenoxyphenyl)isoxazol-5-yl)ethyl)propionamide] |  | 18.5% | 51.8% |  | 4.21 ± 0.53 µM | 6.02 ± 0.63 µM | 2.97 ± 1.49 µM | 129.5 to 130.5 °C |  |  | 70.33 ± 0.25% |  |  |  | 
CC(NC(=O)c1ccccc1)c1cc(-c2ccc(Oc3ccccc3)cc2)no1 (stereo not drawn) [Compound 6k, N-(1-(3-(4-Phenoxyphenyl)isoxazol-5-yl)ethyl)benzamide] |  | 28.1% | > 60% | 626 ± 41.6 nM | 3.23 ± 0.89 µM | 2.61 ± 0.34 µM | 0.57 ± 0.18 µM |  |  |  | 80 ± 2.47% |  |  |  | less than 20%
CCNC(=O)NC(C)c1cc(-c2ccc(Oc3ccccc3)cc2)no1 (stereo not drawn) [Compound 6n, 1-Ethyl-3-(1-(3-(4-phenoxyphenyl)isoxazol-5-yl)ethyl)urea] |  | 13.4% | 44.7% |  | 9.04 ± 1.43 µM | 5.78 ± 0.86 µM | 8.63 ± 1.14 µM | 158.5 to 159.5 °C |  |  | 83.2 ± 2.33% |  |  |  | 
CC(C)NC(=O)NC(C)c1cc(-c2ccc(Oc3ccccc3)cc2)no1 (stereo not drawn) [Compound 6o, 1-Isopropyl-3-(1-(3-(4-phenoxyphenyl)isoxazol-5-yl)ethyl)urea] |  | 17.9% | 49.8% |  | 2.31 ± 0.44 µM | 3.12 ± 0.19 µM | 1.9 ± 0.52 µM | 197.5 to 198.5 °C |  |  | 77.7 ± 5.67% |  |  |  | 
CC(NC(=O)Nc1ccccc1)c1cc(-c2ccc(Oc3ccccc3)cc2)no1 (stereo not drawn) [Compound 6p, 1-(1-(3-(4-Phenoxyphenyl)isoxazol-5-yl)ethyl)-3-phenylurea] |  | 21.5% | > 60% | 1050 ± 180 nM | 1.8 ± 0.62 µM | 5.3 ± 0.46 µM | 0.84 ± 0.08 µM | 195.5 to 196.5 °C |  |  | 85.6 ± 7.35% |  |  |  | less than 20%
CC(NC(=O)NCc1ccccc1)c1cc(-c2ccc(Oc3ccccc3)cc2)no1 (stereo not drawn) [Compound 6q, 1-Benzyl-3-(1-(3-(4-phenoxyphenyl)isoxazol-5-yl)ethyl)urea] |  | 28.3% | > 60% | 711 ± 52.6 nM | 2.47 ± 0.5 µM | 5.73 ± 0.11 µM | 0.89 ± 0.26 µM | 161.5 to 162.5 °C |  |  | 84.9 ± 3.98% |  |  |  | less than 20%

Further lines, with some results ahead:

hACC1 IRs (%) (hACC1) | inhibition at 0.1 µM (hACC1) | inhibition at 5 µM (hACC1) | IC50 (hACC1) | IC50 (HepG2 cells [2]) | IC50 (A549 cells [4]) | IC50 (MDA-MB-231 cells [6]) | melting point | hACC1 IRs (%) (hACC1; listed as D098-1432 (6a)) | ACC inhibitory activity (in words) (hACC1; screening at 5 µM and 0.1 µM) | Structure (SMILES) | viability at 72 h, 10 µM [1] | inhibition at 10 µM (HepG2 cells [3]) | inhibition at 10 µM (A549 cells [5]) | inhibition at 10 µM (MDA-MB-231 cells [7]) | IRs towards HUVEC (HUVEC)
57% | 18.1% | 54.9% |  | 1.91 ± 0.66 µM | 1.4 ± 0.22 µM | 1.57 ± 0.09 µM | 152.5 to 153.5 °C | 57.39% |  | CC(=O)NC(C)c1cc(-c2ccc(Oc3ccc(OCc4ccccc4)cc3)cc2)no1 (stereo not drawn) [Compound 6a, N-(1-(3-(4-(4-(Benzyloxy)phenoxy)phenyl)isoxazol-5-yl)ethyl)acetamide] | 45.8 ± 1.16% | > 80% | > 80% | > 80% | 
 | 8.76% | 26.8% |  | > 10 µM | > 10 µM | > 10 µM | 103 to 105 °C |  |  | CC(=O)NC(C)c1cc(-c2ccc(Oc3ccc(O)cc3)cc2)no1 (stereo not drawn) [Compound 6b, N-(1-(3-(4-(4-Hydroxyphenoxy)phenyl)isoxazol-5-yl)ethyl)acetamide] | 88.1 ± 3.83% |  |  |  | 
 | 9.89% | 37.3% |  | > 10 µM | > 10 µM | > 10 µM | 127.5 to 128.5 °C |  |  | COc1ccc(Oc2ccc(-c3cc(C(C)NC(C)=O)on3)cc2)cc1 (stereo not drawn) [Compound 6c, N-(1-(3-(4-(4-Methoxyphenoxy)phenyl)isoxazol-5-yl)ethyl)acetamide] | 82.4 ± 4.85% |  |  |  | 
 | 12.7% | 45.5% |  | > 10 µM | > 10 µM | > 10 µM | 106.5 to 107.5 °C |  |  | CCOc1ccc(Oc2ccc(-c3cc(C(C)NC(C)=O)on3)cc2)cc1 (stereo not drawn) [Compound 6d, N-(1-(3-(4-(4-Ethoxyphenoxy)phenyl)isoxazol-5-yl)ethyl)acetamide] | 89.1 ± 6.09% |  |  |  | 
 | 31.1% | > 60% | 438 ± 16.3 nM | 3.48 ± 0.74 µM | 2.66 ± 0.47 µM | 1.53 ± 0.38 µM | 118.5 to 119.5 °C |  |  | CCCOc1ccc(Oc2ccc(-c3cc(C(C)NC(C)=O)on3)cc2)cc1 (stereo not drawn) [Compound 6e, N-(1-(3-(4-(4-Propoxyphenoxy)phenyl)isoxazol-5-yl)ethyl)acetamide] | 83.7 ± 4.4% |  |  |  | less than 20%
 | 16.7% | 52.8% |  | > 10 µM | > 10 µM | 6.77 ± 0.74 µM | 124 to 126 °C |  |  | CC(=O)NC(C)c1cc(-c2ccc(Oc3ccc(OC(C)C)cc3)cc2)no1 (stereo not drawn) [Compound 6f, N-(1-(3-(4-(4-Isopropoxyphenoxy)phenyl)isoxazol-5-yl)ethyl)acetamide] | 35 ± 1.66% |  |  |  | 
 | 20.8% | 58.4% |  | 3.48 ± 0.74 µM | 2.66 ± 0.47 µM | 1.13 ± 0.38 µM | 168.5 to 169.5 °C |  |  | CC(NC(=O)C1CC1)c1cc(-c2ccc(Oc3ccccc3)cc2)no1 (stereo not drawn) [Compound 6j, N-(1-(3-(4-Phenoxyphenyl)isoxazol-5-yl)ethyl)cyclopropanecarboxamide] | 59.5 ± 0.95% |  |  |  | 
 | 3.57% | 16.8% |  | > 10 µM | > 10 µM | > 10 µM | 106.5 to 107.5 °C |  | hardly observed | CCOC(=O)NC(C)c1cc(-c2ccc(Oc3ccccc3)cc2)no1 (stereo not drawn) [Compound 6m, Ethyl (1-(3-(4-phenoxyphenyl)isoxazol-5-yl)ethyl)carbamate] | 79.1 ± 4.76% |  |  |  | 
 |  |  |  | 0.67 ± 0.13 µM | 0.52 ± 0.07 µM | 0.42 ± 0.09 µM |  |  |  | COc1cccc2c1C(=O)c1c(O)c3c(c(O)c1C2=O)C[C@@](O)(C(=O)CO)C[C@@H]3O[C@H]1C[C@H](N)[C@H](O)[C@H](C)O1 [DOX, doxorubicin, reference compound] | 18.9 ± 4.02% |  |  |  | 
